Results from patent US20110256291A1, “CYCLIC LIPOPEPTIDES FOR USE AS TASTE MODULATORS” (NUTRINOVA NUTRITION SPECIAL TIES & FOOD INGREDIENT GMBH, priority 2008, published 2011).

Molecular target: T1, human T1R2/T1R3 taste receptor (Homo sapiens, UniProt Q7RTX0+Q8TE23)
T1 construct: the cDNA for the receptors ht1R2 and ht1R3 and the cDNA for the blasticidin S deaminase gene have been cloned; expressed in transfected cells; host or cells: HEK293 cell line stably expressing mouse G-alpha-15, stably transfected with the tricistronic vector pTrix-Eb-R2R3 and selected with blasticidin
T1 sequence (Q8TE23 20-839): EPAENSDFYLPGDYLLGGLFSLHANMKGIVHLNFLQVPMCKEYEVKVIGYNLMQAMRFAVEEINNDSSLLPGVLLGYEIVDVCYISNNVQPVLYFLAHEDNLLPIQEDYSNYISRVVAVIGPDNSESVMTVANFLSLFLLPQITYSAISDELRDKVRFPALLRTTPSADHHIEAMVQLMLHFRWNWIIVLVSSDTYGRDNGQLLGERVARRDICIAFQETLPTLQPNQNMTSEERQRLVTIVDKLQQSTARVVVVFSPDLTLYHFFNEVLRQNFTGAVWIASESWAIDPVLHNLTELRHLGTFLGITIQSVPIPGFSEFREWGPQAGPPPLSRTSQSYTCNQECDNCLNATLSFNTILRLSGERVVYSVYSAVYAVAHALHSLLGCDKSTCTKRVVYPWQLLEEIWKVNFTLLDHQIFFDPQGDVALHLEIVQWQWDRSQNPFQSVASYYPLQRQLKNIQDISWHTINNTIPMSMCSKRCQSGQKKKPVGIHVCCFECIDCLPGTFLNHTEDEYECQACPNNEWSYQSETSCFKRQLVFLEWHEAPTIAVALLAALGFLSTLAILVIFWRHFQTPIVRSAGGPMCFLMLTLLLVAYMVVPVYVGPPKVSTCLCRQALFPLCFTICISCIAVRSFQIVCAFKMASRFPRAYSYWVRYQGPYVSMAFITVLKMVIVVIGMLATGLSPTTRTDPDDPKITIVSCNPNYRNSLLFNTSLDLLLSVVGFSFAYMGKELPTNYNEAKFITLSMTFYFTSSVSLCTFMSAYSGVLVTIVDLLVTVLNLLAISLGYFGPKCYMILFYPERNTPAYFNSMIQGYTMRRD
T1 sequence (Q7RTX0 21-852): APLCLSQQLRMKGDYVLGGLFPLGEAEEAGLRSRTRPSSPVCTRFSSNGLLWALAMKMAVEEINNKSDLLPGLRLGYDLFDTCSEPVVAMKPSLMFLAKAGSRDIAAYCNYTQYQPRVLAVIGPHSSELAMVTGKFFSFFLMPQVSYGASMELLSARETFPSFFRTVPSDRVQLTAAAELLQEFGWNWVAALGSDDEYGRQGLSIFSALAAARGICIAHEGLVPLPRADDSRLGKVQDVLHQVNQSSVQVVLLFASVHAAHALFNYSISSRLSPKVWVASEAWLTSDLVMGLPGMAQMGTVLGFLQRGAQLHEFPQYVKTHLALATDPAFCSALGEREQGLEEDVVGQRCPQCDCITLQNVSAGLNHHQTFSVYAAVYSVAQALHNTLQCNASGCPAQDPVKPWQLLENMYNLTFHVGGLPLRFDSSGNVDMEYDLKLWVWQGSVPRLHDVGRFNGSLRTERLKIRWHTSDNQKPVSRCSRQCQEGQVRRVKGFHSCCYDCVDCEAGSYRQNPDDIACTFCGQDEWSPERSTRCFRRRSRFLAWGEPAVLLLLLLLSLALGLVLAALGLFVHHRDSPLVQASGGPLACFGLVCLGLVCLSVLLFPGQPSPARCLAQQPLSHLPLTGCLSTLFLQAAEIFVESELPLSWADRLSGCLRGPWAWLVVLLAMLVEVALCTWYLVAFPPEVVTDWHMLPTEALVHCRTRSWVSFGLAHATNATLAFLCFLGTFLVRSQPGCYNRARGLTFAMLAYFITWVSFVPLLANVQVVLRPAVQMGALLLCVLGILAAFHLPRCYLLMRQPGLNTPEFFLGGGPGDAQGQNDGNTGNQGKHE
Assay: calcium dependent cell based assay (Fluo-4 AM) in HEK293 cells stably expressing G-alpha-15, human T1R2 and human T1R3
Settings: 30 mM fructose (5.4 g/l), pre-examinations
Procedure: Fluo-4 AM assay with stable HEK293 cells—Stable cells are maintained in DMEM high-glucose medium (Invitrogen) supplemented with 10% fetal bovine serum (Biochrom) and 4 mM L-glutamine (Invitrogen). Cells for calcium imaging are maintained in DMEM low-glucose medium supplemented with 10% FBS and 1× Glutamax-1 (Invitrogen) for 48 hours before seeding. These stable cells are trypsinised after 48 hours (either with Trypsin-EDTA, Accutase or TrypLE) and seeded onto poly-D-lysine coated 96-well assay plates (Corning) at a density of 45,000 cells/well in DMEM low-glucose medium supplemented with 10% FBS and 1× Glutamax-1.
After 24 hours, the cells were loaded in 100 μl medium with additional 100 μl of 4 μM Fluo-4 (calcium sensing dye, 2 μM end concentration; Molecular Probes) in Krebs-HEPES (KH)-buffer for 1 hour. The loading reagent is then replaced by 200 μl KH-buffer per well. […]
The dye-loaded stable cells in plates were placed into a fluorescence microtiter plate reader to monitor fluorescence (excitation 488 nm, emission 520 nm) change after the addition of 50 μl KH-buffer supplemented with 5× tastants. […]
Calcium mobilization was quantified as the change of peak fluorescence (ΔF) over the baseline level (F0). Data were expressed as the mean S.E. of the (ΔF/F0) value of replicated independent samples. The analysis was done with the software of the microtiter plate reader. […]

- activation of the sweet taste receptors: barely activating
SMILES: O=C(CO)[C@@H](O)[C@H](O)[C@H](O)CO [fructose]
